Measured values taken from ChEMBL document CHEMBL3875189, “A benzo[b]thiophene-based selective type 4 S1P receptor agonist” (Bioorg Med Chem Lett, 2017).
Calls of active or inactive are those of the source. The rule behind the calls is not given here.

Legend:
[1] = molecular target: T1, Sphingosine 1-phosphate receptor 5 (Homo sapiens, UniProt Q9H228); assay: Agonist activity at recombinant human S1PR5 expressed in CHO cell membranes assessed as [35S]GTP-gammaS binding measured after 1.5 hrs by TopCount scintillation counting method relative to S1P
T1 sequence (Q9H228 whole entry): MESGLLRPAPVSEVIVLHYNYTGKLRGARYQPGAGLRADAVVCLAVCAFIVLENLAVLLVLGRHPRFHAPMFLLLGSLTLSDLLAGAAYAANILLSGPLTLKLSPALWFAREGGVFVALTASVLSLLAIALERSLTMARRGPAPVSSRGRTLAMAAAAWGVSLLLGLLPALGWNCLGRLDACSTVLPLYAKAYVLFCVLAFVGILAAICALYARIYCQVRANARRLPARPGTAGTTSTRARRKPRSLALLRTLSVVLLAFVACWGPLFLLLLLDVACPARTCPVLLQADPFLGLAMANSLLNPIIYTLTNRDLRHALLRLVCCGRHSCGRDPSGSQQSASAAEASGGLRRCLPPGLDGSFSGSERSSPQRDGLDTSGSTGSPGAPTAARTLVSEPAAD

[2] = molecular target: T2, Sphingosine 1-phosphate receptor 4 (Homo sapiens, UniProt O95977); assay: Agonist activity at recombinant human S1PR4 expressed in CHO cell membranes assessed as [35S]GTP-gammaS binding measured after 1.5 hrs by TopCount scintillation counting method
T2 sequence (O95977 whole entry): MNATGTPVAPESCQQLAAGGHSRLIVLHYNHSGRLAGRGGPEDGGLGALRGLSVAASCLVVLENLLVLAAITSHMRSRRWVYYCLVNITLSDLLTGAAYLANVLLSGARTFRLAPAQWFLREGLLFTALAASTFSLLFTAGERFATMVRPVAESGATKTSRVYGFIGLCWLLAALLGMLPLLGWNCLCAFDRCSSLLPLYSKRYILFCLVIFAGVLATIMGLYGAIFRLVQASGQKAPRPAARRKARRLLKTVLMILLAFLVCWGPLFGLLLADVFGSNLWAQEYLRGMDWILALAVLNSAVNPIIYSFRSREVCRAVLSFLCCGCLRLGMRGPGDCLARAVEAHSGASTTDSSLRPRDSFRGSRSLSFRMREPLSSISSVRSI

[3] = molecular target: T1, Sphingosine 1-phosphate receptor 5; assay: Agonist activity at recombinant human S1PR5 expressed in CHO cell membranes assessed as [35S]GTP-gammaS binding measured after 1.5 hrs by TopCount scintillation counting method
[4] = molecular target: Sphingosine 1-phosphate receptor 3 (Homo sapiens, UniProt Q99500); assay: Agonist activity at recombinant human S1PR3 expressed in CHO cell membranes assessed as [35S]GTP-gammaS binding measured after 1.5 hrs by TopCount scintillation counting method
Sphingosine 1-phosphate receptor 3, sequence (Q99500 whole entry): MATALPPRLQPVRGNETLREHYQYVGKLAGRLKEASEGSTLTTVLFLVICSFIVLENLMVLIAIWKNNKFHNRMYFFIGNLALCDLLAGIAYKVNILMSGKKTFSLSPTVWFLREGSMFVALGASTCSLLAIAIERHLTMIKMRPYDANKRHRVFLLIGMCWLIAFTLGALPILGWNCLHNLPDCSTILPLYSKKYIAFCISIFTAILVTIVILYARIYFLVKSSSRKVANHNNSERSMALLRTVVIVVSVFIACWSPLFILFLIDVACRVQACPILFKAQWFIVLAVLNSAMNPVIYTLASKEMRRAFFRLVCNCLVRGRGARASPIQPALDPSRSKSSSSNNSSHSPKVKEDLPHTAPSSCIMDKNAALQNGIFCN

[5] = molecular target: Sphingosine 1-phosphate receptor 2 (Homo sapiens, UniProt O95136); assay: Agonist activity at recombinant human S1PR2 expressed in CHO cell membranes assessed as [35S]GTP-gammaS binding measured after 1.5 hrs by TopCount scintillation counting method
Sphingosine 1-phosphate receptor 2, sequence (O95136 whole entry): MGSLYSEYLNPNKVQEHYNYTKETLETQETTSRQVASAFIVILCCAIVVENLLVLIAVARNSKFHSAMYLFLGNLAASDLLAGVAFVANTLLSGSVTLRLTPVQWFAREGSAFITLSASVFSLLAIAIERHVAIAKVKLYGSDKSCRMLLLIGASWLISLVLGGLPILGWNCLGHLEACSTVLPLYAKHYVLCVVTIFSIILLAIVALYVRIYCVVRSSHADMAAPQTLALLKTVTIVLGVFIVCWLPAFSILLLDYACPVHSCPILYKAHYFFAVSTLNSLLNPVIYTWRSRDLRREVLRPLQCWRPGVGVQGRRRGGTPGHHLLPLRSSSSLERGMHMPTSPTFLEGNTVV

[6] = molecular target: T3, Sphingosine 1-phosphate receptor 1 (Homo sapiens, UniProt P21453); assay: Agonist activity at recombinant human S1PR1 expressed in CHO cell membranes assessed as [35S]GTP-gammaS binding measured after 1.5 hrs by TopCount scintillation counting method
T3 sequence (P21453 whole entry): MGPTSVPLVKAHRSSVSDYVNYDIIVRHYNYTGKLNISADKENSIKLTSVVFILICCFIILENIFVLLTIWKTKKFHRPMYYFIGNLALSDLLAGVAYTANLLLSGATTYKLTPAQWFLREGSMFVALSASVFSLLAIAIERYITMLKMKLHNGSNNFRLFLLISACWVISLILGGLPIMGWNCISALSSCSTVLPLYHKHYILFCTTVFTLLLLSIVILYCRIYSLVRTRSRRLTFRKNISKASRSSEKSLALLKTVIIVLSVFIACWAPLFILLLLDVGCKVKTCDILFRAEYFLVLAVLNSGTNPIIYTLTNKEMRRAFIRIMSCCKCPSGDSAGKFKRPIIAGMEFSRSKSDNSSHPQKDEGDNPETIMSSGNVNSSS

[7] = molecular target: T3, Sphingosine 1-phosphate receptor 1; assay: Activation of human S1PR1 expressed in CHO cells assessed as ERK1/2 phosphorylation at 1 to 10 uM treated under serum-free condition post 1 day serum starvation measured after 10 to 30 mins by Western blot analysis; format: cell-based
[8] = molecular target: T3, Sphingosine 1-phosphate receptor 1; assay: Activation of human S1PR1 expressed in CHO cells assessed as suppression of forskolin-induced intracellular cAMP level at 1 to 10 uM measured after 15 mins by ELISA; format: functional, cell-based
[9] = molecular target: T1, Sphingosine 1-phosphate receptor 5; assay: Activation of human S1PR5 expressed in CHO cells assessed as suppression of forskolin-induced intracellular cAMP level at 1 to 10 uM measured after 15 mins by ELISA; format: functional, cell-based

| SMILES | Efficacy [1] | EC50 [2] | EC50 [3] | other results |
| --- | --- | --- | --- | --- |
| CCc1ccccc1-c1cccc2sc(CN3CC(C(=O)O)C3)cc12 | 10% | > 100000 nM | 21200 nM |  |
| O=C(O)Cc1cccc(NCc2cc3cc(-c4ccc5ccccc5c4)ccc3s2)c1 | 12% | > 100000 nM | 769 nM |  |
| CCc1ccccc1-c1cccc2sc(CNc3cccc(CC(=O)O)c3)cc12 |  | 470 nM | > 100000 nM |  |
| O=C(O)CCNCc1cc2c(-c3ccc4ccccc4c3)cccc2s1 | 75% | 433 nM | 31 nM | EC50 [4]: > 100000 nM; EC50 [5]: > 100000 nM; EC50 [6]: > 100000 nM |
| O=C(O)CCCCNCc1cc2cc(-c3ccc4ccccc4c3)ccc2s1 | 54% | 724 nM | 709 nM |  |
| O=C(O)CNCc1cc2cc(-c3ccc4ccccc4c3)ccc2s1 | 63% | 350 nM | 350 nM |  |
| CCc1ccccc1-c1cccc2sc(CNCc3ccc(C(=O)O)cc3)cc12 | 11% | > 100000 nM | 6700 nM |  |
| O=C(O)C1CN(Cc2cc3cc(-c4ccc5ccccc5c4)ccc3s2)C1 | 50% | > 100000 nM | 22 nM | EC50 [4]: > 100000 nM; Activity [7]: Active; Activity [8]: Active; EC50 [5]: > 100000 nM; EC50 [6]: > 100000 nM; Activity [9]: Active |
| O=C(O)c1ccc(CNCc2cc3cccc(-c4ccc5ccccc5c4)c3s2)cc1 | 23% | > 100000 nM | 4510 nM |  |
| COc1ccc2cc(-c3cccc4cc(CNCCCC(=O)O)sc34)ccc2c1 |  | 1930 nM | > 100000 nM |  |
| NC(CNCc1cc2c(-c3ccc4ccccc4c3)cccc2s1)C(=O)O (configuration not stated) | 34% | 1100 nM | 329 nM |  |
| O=C(O)Cc1cccc(NCc2cc3cccc(-c4ccc5ccccc5c4)c3s2)c1 | 22% | 816 nM | 1670 nM |  |
| O=C(O)c1ccc(CNCc2cc3cc(-c4ccc5ccccc5c4)ccc3s2)cc1 |  | > 100000 nM | > 100000 nM |  |
| O=C(O)Cc1cccc(NCc2cc3c(-c4ccc5ccccc5c4)cccc3s2)c1 | 23% |  | 2140 nM |  |
| O=C(O)CNCc1cc2c(-c3ccc4ccccc4c3)cccc2s1 | 47% | 640 nM | 51 nM | EC50 [4]: > 100000 nM; EC50 [5]: > 100000 nM; EC50 [6]: > 100000 nM |
| O=C(O)CCCNCc1cc2cc(-c3ccc4ccccc4c3)ccc2s1 | 65% | 165 nM | 143 nM |  |

| SMILES | Efficacy [1] | EC50 [2] | EC50 [3] | other results |
| --- | --- | --- | --- | --- |
| O=C(O)CCCCNCc1cc2c(-c3ccc4ccccc4c3)cccc2s1 | 47% | 1080 nM | 152 nM | EC50 [4]: > 100000 nM; EC50 [5]: > 100000 nM; EC50 [6]: > 100000 nM |
| NC(CNCc1cc2cccc(-c3ccc4ccccc4c3)c2s1)C(=O)O (configuration not stated) | 35% | 694 nM | 1070 nM |  |
| O=C(O)C1CN(Cc2cc3cccc(-c4ccc5ccccc5c4)c3s2)C1 | 13% | > 100000 nM | 506 nM |  |
| NC(CNCc1cc2cc(-c3ccc4ccccc4c3)ccc2s1)C(=O)O (configuration not stated) | 69% | 541 nM | 728 nM |  |
| O=C(O)C1CN(Cc2cc3c(-c4ccc5ccccc5c4)cccc3s2)C1 | 14% | 1010 nM | 175 nM |  |
| O=C(O)c1ccc(CNCc2cc3c(-c4ccc5ccccc5c4)cccc3s2)cc1 | 53% | > 100000 nM | 356 nM | EC50 [4]: > 100000 nM; EC50 [5]: > 100000 nM; EC50 [6]: > 100000 nM |
| O=C(O)CCCNCc1cc2cccc(-c3ccc4c(c3)OCO4)c2s1 | 26% | 3920 nM | 3130 nM |  |
| CC(CNCc1cc2cccc(-c3ccc4ccccc4c3)c2s1)C(=O)O (configuration not stated) | 32% | 1020 nM | 887 nM |  |
| O=C(O)CCCNCc1cc2cccc(-c3ccc(C(F)(F)F)cc3)c2s1 | 15% | 1900 nM | 552 nM |  |
| O=C(O)Cc1ccc(NCc2cc3c(-c4ccc5ccccc5c4)cccc3s2)cc1 |  | > 100000 nM | > 100000 nM |  |
| O=C(O)Cc1ccc(NCc2cc3cccc(-c4ccc5ccccc5c4)c3s2)cc1 | 32% | 1430 nM | 4020 nM |  |
| CCc1ccccc1-c1cccc2sc(CNc3ccc(CC(=O)O)cc3)cc12 | 9% | 2570 nM | 4770 nM |  |
| O=C(O)CCNCc1cc2cc(-c3ccc4ccccc4c3)ccc2s1 | 78% | 38 nM | 25 nM |  |
| CC(CNCc1cc2cc(-c3ccc4ccccc4c3)ccc2s1)C(=O)O (configuration not stated) | 77% | 115 nM | 232 nM |  |
| O=C(O)CCCNCc1cc2c(-c3ccc4ccccc4c3)cccc2s1 | 69% | 211 nM | 60 nM | EC50 [4]: > 100000 nM; EC50 [5]: > 100000 nM; EC50 [6]: > 100000 nM |
| O=C(O)Cc1ccc(NCc2cc3cc(-c4ccc5ccccc5c4)ccc3s2)cc1 |  | > 100000 nM | > 100000 nM |  |

Continued, in another order:

| Efficacy [1] | EC50 [2] | EC50 [3] | SMILES | other results |
| --- | --- | --- | --- | --- |
|  | > 100000 nM | > 100000 nM | CCc1ccccc1-c1cccc2cc(CNCC(=O)O)sc12 |  |
|  | 18300 nM | > 100000 nM | CCc1ccccc1-c1cccc2sc(CNCCCC(=O)O)cc12 |  |
| 18% | 331 nM | 49 nM | O=C(O)CCCNCc1cc2cccc(-c3cccc(-c4ccccc4)c3)c2s1 |  |
| 37% | 410 nM | 412 nM | O=C(O)CCCCNCc1cc2cccc(-c3ccc4ccccc4c3)c2s1 |  |
|  | 11100 nM | > 100000 nM | CCc1ccccc1-c1cccc2sc(CNCCCCC(=O)O)cc12 |  |
| 39% | 693 nM | 3070 nM | O=C(O)CCCNCc1cc2cccc(-c3cccc(C(F)(F)F)c3)c2s1 |  |
| 36% | 1190 nM | 3970 nM | CCc1ccccc1-c1cccc2cc(CNc3cccc(CC(=O)O)c3)sc12 |  |
| 20% | 3410 nM | 2100 nM | CCc1ccccc1-c1cccc2cc(CNc3ccc(CC(=O)O)cc3)sc12 |  |
| 7% | 13500 nM | 3540 nM | Cc1ccccc1-c1cccc2cc(CNCCCC(=O)O)sc12 |  |
|  | > 100000 nM | > 100000 nM | CCc1ccccc1-c1cccc2cc(CNCc3ccc(C(=O)O)cc3)sc12 |  |
| 10% | 2060 nM | 6450 nM | O=C(O)CCCNCc1cc2cccc(-c3ccc(-c4ccccc4)cc3)c2s1 |  |
| 15% | > 100000 nM | 2590 nM | CCc1ccccc1-c1cccc2cc(CNCCC(=O)O)sc12 |  |
| 26% | 5070 nM | 4690 nM | CC(C)(C)c1ccc(-c2cccc3cc(CNCCCC(=O)O)sc23)cc1 |  |
| 32% | 1480 nM | 272 nM | O=C(O)CNCc1cc2cccc(-c3ccc4ccccc4c3)c2s1 |  |
| 36% | 187 nM | 280 nM | O=C(O)CCNCc1cc2cccc(-c3ccc4ccccc4c3)c2s1 |  |
| 25% | 9250 nM | 10300 nM | Cc1cccc(-c2cccc3cc(CNCCCC(=O)O)sc23)c1 |  |
|  | > 100000 nM | > 100000 nM | CCc1ccccc1-c1cccc2cc(CNCCCC(=O)O)sc12 |  |
| 43% | 19900 nM | 2810 nM | Cc1ccc(-c2cccc3cc(CNCCCC(=O)O)sc23)cc1 |  |
| 16% | > 100000 nM | 2490 nM | CCc1ccccc1-c1cccc2cc(CNCCCCC(=O)O)sc12 |  |
| 10% | > 100000 nM | 4220 nM | CCc1ccccc1-c1cccc2cc(CNCC(C)C(=O)O)sc12 (configuration not stated) |  |
|  | > 100000 nM | > 100000 nM | CCc1ccccc1-c1cccc2sc(CNCC(=O)O)cc12 |  |
|  | 57600 nM | > 100000 nM | CCc1ccccc1-c1cccc2sc(CNCC(N)C(=O)O)cc12 (configuration not stated) |  |
| 25% | 3100 nM | 1560 nM | CCc1ccccc1-c1cccc2cc(CNCC(N)C(=O)O)sc12 (configuration not stated) |  |
|  | 10300 nM | > 100000 nM | CCc1ccccc1-c1cccc2sc(CNCC(C)C(=O)O)cc12 (configuration not stated) |  |
|  | > 100000 nM | > 100000 nM | CCc1ccccc1-c1cccc2cc(CN3CC(C(=O)O)C3)sc12 |  |
|  | > 100000 nM | > 100000 nM | CCc1ccccc1-c1cccc2sc(CNCCC(=O)O)cc12 |  |
| 25% | 1980 nM | 2320 nM | O=C(O)CCCNCc1cc2cccc(-c3cccc4ccccc34)c2s1 |  |
